Consider three compounds from ChEMBL document CHEMBL3526156, “Bioactivation of the cancer chemopreventive agent tamoxifen to quinone methides by cytochrome P4502B6 and identification of the modified residue on the apoprotein” (Drug Metab Dispos, 2012).

Holding throughout (type): ADME
In data set [1] the target is T1, Cytochrome P450 2B6 (Homo sapiens, UniProt P20813).
T1 sequence (P20813 whole entry): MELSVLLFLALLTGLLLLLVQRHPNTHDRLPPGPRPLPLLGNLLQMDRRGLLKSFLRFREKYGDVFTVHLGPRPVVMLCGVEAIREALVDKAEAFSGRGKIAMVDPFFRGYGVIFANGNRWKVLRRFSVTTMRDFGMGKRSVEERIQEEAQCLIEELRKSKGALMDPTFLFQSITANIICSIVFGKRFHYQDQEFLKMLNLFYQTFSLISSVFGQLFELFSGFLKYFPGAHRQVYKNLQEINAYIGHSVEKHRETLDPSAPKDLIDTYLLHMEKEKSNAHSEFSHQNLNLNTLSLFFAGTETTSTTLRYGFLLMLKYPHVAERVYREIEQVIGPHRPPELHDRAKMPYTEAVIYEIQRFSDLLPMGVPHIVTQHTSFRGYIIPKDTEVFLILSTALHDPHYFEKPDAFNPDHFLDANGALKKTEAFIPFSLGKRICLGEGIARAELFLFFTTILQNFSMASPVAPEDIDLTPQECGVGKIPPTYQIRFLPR
Kind of data set: Activity at CYP2B6 (unknown origin) expressed Escherichia coli C41 DE3 cells assessed as enzyme-mediated 4-hydroxytamoxifen quinone methide metabolite formation by measuring reactive metabolite adduct with GSHEE at 90 uM by LC-MS/MS analysis.

Data set [2] is described as follows: Drug metabolism in human liver microsomes assessed as compound formation by measuring retention time at 90 uM by LC-MS/MS analysis.
Data set [3] concerns the target T1, Cytochrome P450 2B6. Briefly: Activity at CYP2B6 (unknown origin) expressed Escherichia coli C41 DE3 cells assessed as compound formation by measuring retention time treated with tamoxifen at 60 uM by LC-MS/MS analysis.
In data set [4] the target is T1, Cytochrome P450 2B6. Briefly: Activity at CYP2B6 (unknown origin) expressed Escherichia coli C41 DE3 cells assessed as compound formation by measuring retention time treated with 4-hydroxytamoxifen at 90 uM by LC-MS/MS analysis.
Data set [5] concerns the target T1, Cytochrome P450 2B6. Briefly: Inactivation of CYP2B6 (unknown origin) expressed in Escherichia coli C41 DE3 cells assessed as modified apo-P450 2B6 adduct formation at 60 uM after 10 mins by ESI-LC-MS analysis in presence of NADPH.
In data set [6] the target is T1, Cytochrome P450 2B6. Briefly: Inactivation of CYP2B6 (unknown origin) expressed in Escherichia coli C41 DE3 cells assessed as modified apo-P450 2B6 adduct formation at 60 uM by ESI-LC-MS analysis in presence of NADPH and GSHEE.

With `CCC(=C(c1ccc(O)cc1)c1ccc(OCCN(C)C)cc1)c1ccccc1`, the Retention time on Cytochrome P450 2B6 [1] stood at 16.9 min.
In the case of `C/C=C(/C(=C1C=CC(=O)C=C1)c1ccc(OCCN(C)C)cc1)c1ccccc1`, the results for the Retention_time (in data set [2]; at Cytochrome P450 2B6 [3]; on Cytochrome P450 2B6 [4]) were 16.6 min, 18.3 min and 16.9 min, respectively.
Turning to `CC/C(=C(\c1ccccc1)c1ccc(OCCN(C)C)cc1)c1ccccc1` [TAMOXIFEN], the result on Cytochrome P450 2B6 [5] and at Cytochrome P450 2B6 [6] was Active.
